Test [1] has as its target T1, hPDI b’x (Homo sapiens, UniProt P07237).
T1 construct: There is also a short 19 amino acid x-linker region between the b’ and a’ domains; made in house; host or cells: E. coli
T1 sequence (P07237 230-368 limits assumed): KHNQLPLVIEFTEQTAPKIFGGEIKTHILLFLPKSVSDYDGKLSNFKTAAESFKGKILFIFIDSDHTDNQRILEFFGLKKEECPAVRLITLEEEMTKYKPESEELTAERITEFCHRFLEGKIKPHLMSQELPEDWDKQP
The test is described as follows: Protein-observe 15N,1H-HSQC NMR titration (chemical shift perturbation, Kd). In kind it is binding. The note with it: for Kd: read-out: Dissociation constant (Kd), PROTEIN 15N/1H Tracked; for Binding classification from 15N,1H-HSQC titration series: 310 K, pH 7.0, resonance shifts throughout the titration. How it is done: (§1) NMR titrations were carried out by collecting ^19F NMR spectra (at a constant peptide concentration of 0.15 mM) and ^15N,^1H-HSQC spectra (at a constant protein concentration of 0.25 mM). This provided binding perspectives from both peptide and protein. ^19F NMR data provided precise curve fits of equation (1) with Kd values in agreement with those obtained by ^15N NMR (Table 1). […] Triple fluorinated peptide spectra are shown in Fig. 4 with example Kd graphs plotted using chemical shift change against b’x concentration (see Supplementary Information SV for single fluorinated peptide ^19F spectra).
(§2) All spectra were collected using a 4-channel, 5-amplifier Bruker Avance III 14.1 T (600 MHz ^1H) NMR spectrometer equipped with a 5 mm QCI-F cryoprobe. ^15N,^1H-HSQC spectra were acquired over 45 min on samples containing 0.25 mM b’x and varying peptide concentrations. Each ^19F 1D spectrum was acquired over 60 min on samples of 0.15 mM Δ-som with varying protein concentration. Ratios of the variable:static components in each experiment were 1:4, 1:2, 1:1, 1.5:1, 2:1 and 2.5:1. All samples were run at 310 K in 20 mM sodium phosphate buffer (pH 7.0) containing 50 mM NaCl, 5% D6-DMSO, 5% ^2H2O and 0.05% sodium azide. 1D NMR data were processed using Bruker Topspin software and referenced using the position of trifluoroacetic acid (−76.55 ppm). 2D data were processed using NMRPipe[31] and analysed using the CCPN Analysis software package.
Amide chemical shifts were calculated in Hz as √[(0.6Δ^1H)^2 + (Δ^15N)^2]. Dissociation constants (Kd) for each shifting peak were calculated by plotting the chemical shift perturbation (Hz) against ligand concentration (mM) and fitting the curve to the equation: […]
(§3) where Δobs is the observed chemical shift perturbation, Δmax the maximum chemical shift perturbation and [P] and [L] the protein and ligand concentrations respectively. This equation was used to fit both ^15N and ^19F NMR data using KaleidaGraph 4.0 (Synergy Software). Standard errors from the Levenberg-Marquardt fitting routine were taken as the uncertainties. We determined Kd from ^15N,^1H HSQC NMR data using two approaches: First, by simultaneous fitting all shifts which are averaged to create a single plot, which is considered an accurate method of Kd determination. Second, we tracked and fitted each peak individually to the equation above and averaged all results and errors across all fits. […] This hPDI system creates Kd values with shallow binding curve where errors where average chemical shifts reduce fitting accuracy and individual fitting produces higher resoltuion. Therefore, we used Kd values from the averaged individual fit method within this paper to report smaller errors.

Test [2] deals with T1, hPDI b’x. The test is described as follows: Ligand-observe 19F NMR titration (chemical shift change vs b’x concentration, Kd). The class given is binding. Particulars: 310 K. How it is done:
as §1, §2, §3

Test [3] deals with Δ-somatostatin (Homo sapiens) (UniProt P61278). The test is described as follows: 19F NMR. Particulars: cited from earlier work.
Test [4] addresses human protein disulphide isomerase (hPDI) b'x fragment (human) (UniProt P07237). The test is described as follows: SEC; gel filtration elution profile of 15N labelled b'x (step of the purification); absorbance at 280 nm. A general note: SEC sorts molecules by how far they enter the pores of the column.
Test [5] addresses human protein disulphide isomerase (hPDI) fragment b'x (human). Put plainly: NMR titration; protein-observed 15N,1H-HSQC; 0.25 mM 15N b'x constant, peptide titrated (ratios 1:4 to 2.5:1); 310 K; 20 mM sodium phosphate pH 7.0, 50 mM NaCl, 5% D6-DMSO, 5% 2H2O, 0.05% sodium azide; Kd is the average of the fits of the individual shifting peaks.
[6] abbreviates: 15N,1H-HSQC, constant 0.25 mM 15N b’x, varying peptide (ratios 1:4 to 2.5:1), 310 K (37 °C), 20 mM sodium phosphate pH 7.0, 50 mM NaCl, 5% D6-DMSO, average of individual residue fits, ± standard error of Levenberg-Marquardt fit.
Where [7] appears, read: 19F 1D NMR, constant 0.15 mM singly fluorinated peptide, varying b’x, 20 mM sodium phosphate pH 7.0, 50 mM NaCl, 5% D6-DMSO, ± standard error of fit, read-out: Dissociation constant (Kd), LIGAND 19F Tracked (Single-F).

Non-standard residues stand in square brackets, D forms with d. Residues, ends and D or L forms follow the SMILES beside them. No end group written: not given here. Phe(4-F) = N[C@@H](Cc1ccc(F)cc1)C(=O)O

As to `C[C@H](N)C(=O)NCC(=O)N[C@@H](CO)C(=O)N[C@@H](CCCCN)C(=O)N[C@@H](CC(N)=O)C(=O)N[C@@H](Cc1ccc(F)cc1)C(=O)N[C@@H](Cc1ccccc1)C(=O)N[C@@H](Cc1c[nH]c2ccccc12)C(=O)N[C@@H](CCCCN)C(=O)N[C@H](C(=O)N[C@@H](Cc1ccccc1)C(=O)N[C@H](C(=O)N[C@@H](CO)C(=O)N[C@@H](CO)C(=O)O)[C@@H](C)O)[C@@H](C)O` [F1 Δ-som] (H-AGSKN[Phe(4-F)]FWKTFTSS-OH), the Kd on hPDI b’x [1] (setting [6]) was found to be 61 ± 47 µM; on hPDI b’x [2] (setting [7]), 109 ± 13 µM. As for `C[C@H](N)C(=O)NCC(=O)N[C@@H](CO)C(=O)N[C@@H](CCCCN)C(=O)N[C@@H](CC(N)=O)C(=O)N[C@@H](Cc1ccc(F)cc1)C(=O)N[C@@H](Cc1ccc(F)cc1)C(=O)N[C@@H](Cc1c[nH]c2ccccc12)C(=O)N[C@@H](CCCCN)C(=O)N[C@H](C(=O)N[C@@H](Cc1ccc(F)cc1)C(=O)N[C@H](C(=O)N[C@@H](CO)C(=O)N[C@@H](CO)C(=O)O)[C@@H](C)O)[C@@H](C)O` [F1,2,3 Δ-som] (H-AGSKN[Phe(4-F)][Phe(4-F)]WKT[Phe(4-F)]TSS-OH), the Kd was found to be 48 ± 35 µM at hPDI b’x [1] (setting [6]); 108 ± 15 µM at hPDI b’x [2] (19F 1D NMR, F1 (Phe6) resonance of triple fluorinated peptide, 0.15 mM peptide, varying b’x, pH 7.0, ± standard error of fit, read-out: Dissociation constant (Kd), LIGAND 19F Tracked (Triple-F), F1 peak); 33 ± 11 µM at hPDI b’x [2] (19F 1D NMR, F2 (Phe7) resonance of triple fluorinated peptide, 0.15 mM peptide, varying b’x, pH 7.0, ± standard error of fit, read-out: Dissociation constant (Kd), LIGAND 19F Tracked (Triple-F), F2 peak); 45 ± 14 µM at hPDI b’x [2] (19F 1D NMR, F3 (Phe11) resonance of triple fluorinated peptide, 0.15 mM peptide, varying b’x, pH 7.0, ± standard error of fit, read-out: Dissociation constant (Kd), LIGAND 19F Tracked (Triple-F), F3 peak); 62 ± 13 µM at hPDI b’x [2] (mean of the Kd from each monitored 19F resonance in the triple fluorinated peptide, 0.15 mM peptide, pH 7.0, read-out: Dissociation constant (Kd), LIGAND 19F Tracked (Triple-F), mean Kd). As for `C[C@H](N)C(=O)NCC(=O)N[C@@H](CO)C(=O)N[C@@H](CCCCN)C(=O)N[C@@H](CC(N)=O)C(=O)N[C@@H](Cc1ccccc1)C(=O)N[C@@H](Cc1ccc(F)cc1)C(=O)N[C@@H](Cc1c[nH]c2ccccc12)C(=O)N[C@@H](CCCCN)C(=O)N[C@H](C(=O)N[C@@H](Cc1ccccc1)C(=O)N[C@H](C(=O)N[C@@H](CO)C(=O)N[C@@H](CO)C(=O)O)[C@@H](C)O)[C@@H](C)O` [F2 Δ-som] (H-AGSKNF[Phe(4-F)]WKTFTSS-OH), the Kd worked out at 51 ± 30 µM on hPDI b’x [1] (setting [6]) and 27 ± 3 µM on hPDI b’x [2] (setting [7]).

Consider `C[C@H](N)C(=O)NCC(=O)N[C@@H](CO)C(=O)N[C@@H](CCCCN)C(=O)N[C@@H](CC(N)=O)C(=O)N[C@@H](Cc1ccccc1)C(=O)N[C@@H](Cc1ccccc1)C(=O)N[C@@H](Cc1c[nH]c2ccccc12)C(=O)N[C@@H](CCCCN)C(=O)N[C@H](C(=O)N[C@@H](Cc1ccc(F)cc1)C(=O)N[C@H](C(=O)N[C@@H](CO)C(=O)N[C@@H](CO)C(=O)O)[C@@H](C)O)[C@@H](C)O` [F3 Δ-som] (H-AGSKNFFWKT[Phe(4-F)]TSS-OH), for which the Kd amounted to 84 ± 53 µM on hPDI b’x [1] (setting [6]) and 97 ± 21 µM on hPDI b’x [2] (setting [7]). For “AGSKNAAWKTATSS [Phe6,7,11 → Ala Δ-som, triple Phe → Ala peptide of Δ-som]”, the “Binding classification from 15N,1H-HSQC titration series” value at hPDI b’x [1] (0.25 mM 15N b’x) was “non-binding”. The “Chemical shifts identified at the end point of the titration” value on hPDI b’x [1] (15N,1H-HSQC, 0.25 mM 15N b’x, shifts did not map to the ligand binding site) is recorded as under 0.01 ppm. Further, on hPDI b’x [1] (setting [6]), the “Dissociation constant (Kd), PROTEIN 15N/1H Tracked” value was “Non binding”.

With AGSKNAAWKTFTSS [Phe6,7 → Ala Δ-som], the Kd on hPDI b’x [1] (setting [6]) was 242 ± 177 µM. The same measure, in the same setting: in the case of AGSKNAFWKTATSS [Phe6,11 → Ala Δ-som] it was 587 ± 174 µM; in that of AGSKNAFWKTFTSS [Phe6 → Ala Δ-som], 199 ± 100 µM. As for AGSKNFAWKTATSS [Phe7,11 → Ala Δ-som], on hPDI b’x [1] (setting [6]), the Kd is 412 ± 219 µM. AGSKNFAWKTFTSS [Phe7 → Ala Δ-som]: at hPDI b’x [1] (setting [6]), the Kd was 123 ± 96 µM. As to AGSKNFFWKTATSS [Phe11 → Ala Δ-som], the Kd on hPDI b’x [1] (setting [6]) came out at 261 ± 101 µM. Still for that read-out and setting: in the case of AGSKNFFWKTFTSS [Δ-som, Δ-somatostatin] it was 103 ± 47 µM. Turning to PDI b'x (from UniProt P07237), the Kd in test [3] was 23 µM. Turning to “RERQIKKQTALVELV [helix-28 from human serum albumin, helix-28 from human serum albumin (…), reference compound]”, at hPDI b’x [1] (0.25 mM 15N b’x), the “Binding classification from 15N,1H-HSQC titration series” value was “non-binding”. Usually stoichiometry N stands for the number of molecules, sites or subunits per partner or assembly. In test [4], “human protein disulphide isomerase (hPDI) b'x fragment (from UniProt P07237 18-508) (domain or fragment)” gave a stoichiometry N of 2. As to AGSKNFAWKTATSS [Phe7,11 → Ala Δ-som], in test [5], the Kd worked out at 412 µM.

Turning to AGSKN[Phe(4-F)]FWKTFTSS [F1 Δ-som], the Kd in test [5] was 61 µM. With AGSKNFFWKT[Phe(4-F)]TSS [F3 Δ-som], the Kd in test [5] worked out at 84 µM. Still for that read-out and setting: in the case of AGSKN[Phe(4-F)][Phe(4-F)]WKT[Phe(4-F)]TSS [F1,2,3 Δ-som] it was 48 µM; in that of AGSKNAFWKTATSS [Phe6,11 → Ala Δ-som], 587 µM; in that of AGSKNF[Phe(4-F)]WKTFTSS [F2 Δ-som], 51 µM.

Turning to AGSKNAFWKTFTSS [Phe6 → Ala Δ-som], the Kd in test [5] amounted to 199 µM.

Turning to AGSKNFFWKTATSS [Phe11 → Ala Δ-som], in test [5], the Kd was determined as 261 µM. Same read-out and setting: with AGSKNFAWKTFTSS [Phe7 → Ala Δ-som] the figure was 123 µM. Still for that read-out and setting: with AGSKNFFWKTFTSS [Δ-somatostatin] the figure was 103 µM; with AGSKNAAWKTFTSS [Phe6,7 → Ala Δ-som], 242 µM.

The values above are taken from PMC4726260, “Combined ligand-observe ^19F and protein-observe ^15N,^1H-HSQC NMR suggests phenylalanine as the key Δ-somatostatin residue recognized by human protein disulfide isomerase” (Scientific Reports, 2016).
